Results reported in patent publication US8148391B2 (Cephalon, Inc., priority 2006, dated 2012).
Where two headings read alike, the source gives them in different places. Blank lines part the entries; values can stand above or below the compound they belong to.

Tests used:
[1] = biological target: T1, baculovirus-expressed ALK (Homo sapiens, UniProt Q9UM73); test: ALK Kinase Assay (ELISA-type, time-resolved fluorescence); assay type: biochemical
T1 construct: host or cells: baculovirus expression system
T1 sequence (Q9UM73 19-1620): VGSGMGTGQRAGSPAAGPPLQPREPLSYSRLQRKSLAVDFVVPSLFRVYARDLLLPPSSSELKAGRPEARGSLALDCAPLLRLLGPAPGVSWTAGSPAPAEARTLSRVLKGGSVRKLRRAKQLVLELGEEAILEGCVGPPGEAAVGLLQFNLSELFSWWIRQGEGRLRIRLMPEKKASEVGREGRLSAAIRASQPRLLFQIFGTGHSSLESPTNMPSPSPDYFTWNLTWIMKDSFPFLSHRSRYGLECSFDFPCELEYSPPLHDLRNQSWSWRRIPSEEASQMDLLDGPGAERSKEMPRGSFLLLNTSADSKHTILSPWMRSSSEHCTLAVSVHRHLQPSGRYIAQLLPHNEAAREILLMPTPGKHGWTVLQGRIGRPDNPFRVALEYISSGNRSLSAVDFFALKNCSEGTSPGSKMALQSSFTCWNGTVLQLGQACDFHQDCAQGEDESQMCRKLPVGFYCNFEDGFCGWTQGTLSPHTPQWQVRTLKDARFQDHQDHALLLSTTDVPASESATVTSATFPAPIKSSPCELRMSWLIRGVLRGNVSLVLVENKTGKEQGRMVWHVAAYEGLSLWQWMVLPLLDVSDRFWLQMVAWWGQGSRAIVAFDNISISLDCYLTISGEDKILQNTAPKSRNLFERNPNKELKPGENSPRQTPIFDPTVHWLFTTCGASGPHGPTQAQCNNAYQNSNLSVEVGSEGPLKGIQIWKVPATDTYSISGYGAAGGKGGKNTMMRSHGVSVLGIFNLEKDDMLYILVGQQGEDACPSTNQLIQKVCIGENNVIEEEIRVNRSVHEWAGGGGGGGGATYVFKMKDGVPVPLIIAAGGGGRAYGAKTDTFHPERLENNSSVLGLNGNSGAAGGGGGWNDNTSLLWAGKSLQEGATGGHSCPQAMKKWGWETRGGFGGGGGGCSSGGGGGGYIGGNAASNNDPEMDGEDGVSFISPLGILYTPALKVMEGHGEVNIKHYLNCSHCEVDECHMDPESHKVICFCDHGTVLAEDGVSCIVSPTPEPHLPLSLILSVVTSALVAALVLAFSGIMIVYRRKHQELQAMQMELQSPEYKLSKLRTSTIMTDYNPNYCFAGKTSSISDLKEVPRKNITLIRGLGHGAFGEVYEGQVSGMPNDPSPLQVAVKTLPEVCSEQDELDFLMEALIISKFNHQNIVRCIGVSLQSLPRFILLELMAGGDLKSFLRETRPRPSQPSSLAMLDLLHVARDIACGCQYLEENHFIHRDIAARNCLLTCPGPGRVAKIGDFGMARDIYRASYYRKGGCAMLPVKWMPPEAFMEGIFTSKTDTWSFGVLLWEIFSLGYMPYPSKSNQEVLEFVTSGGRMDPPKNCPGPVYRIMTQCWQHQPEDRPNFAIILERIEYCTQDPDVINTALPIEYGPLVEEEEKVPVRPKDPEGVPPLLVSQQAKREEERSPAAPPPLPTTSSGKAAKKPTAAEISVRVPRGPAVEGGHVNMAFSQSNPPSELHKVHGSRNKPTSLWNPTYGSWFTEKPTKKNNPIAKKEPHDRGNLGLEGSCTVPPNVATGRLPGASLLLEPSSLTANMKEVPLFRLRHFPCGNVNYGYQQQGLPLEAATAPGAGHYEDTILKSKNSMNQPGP
Outline: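 Substrate coating: phospholipase C-γ, 10 μg/mL in TBS. Kinase step: 30 ng/ml ALK, 15 min, 37° C. Detection and analysis: Eu-N1 PT66 antibody, with IC50 fitted as a sigmoidal variable-slope dose-response curve.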

[2] = biological target: T2, c-Met (cytoplasmic domain) (Homo sapiens, UniProt P08581); test: c-Met Kinase Assay (same methods as for ALK, with modifications); assay type: biochemical
T2 construct: 10 ng/mL c-Met (cytoplasmic domain, Invitrogen Corporation #PV3143); purchased Invitrogen Corporation PV3143
T2 sequence (P08581 956-1390 limits assumed): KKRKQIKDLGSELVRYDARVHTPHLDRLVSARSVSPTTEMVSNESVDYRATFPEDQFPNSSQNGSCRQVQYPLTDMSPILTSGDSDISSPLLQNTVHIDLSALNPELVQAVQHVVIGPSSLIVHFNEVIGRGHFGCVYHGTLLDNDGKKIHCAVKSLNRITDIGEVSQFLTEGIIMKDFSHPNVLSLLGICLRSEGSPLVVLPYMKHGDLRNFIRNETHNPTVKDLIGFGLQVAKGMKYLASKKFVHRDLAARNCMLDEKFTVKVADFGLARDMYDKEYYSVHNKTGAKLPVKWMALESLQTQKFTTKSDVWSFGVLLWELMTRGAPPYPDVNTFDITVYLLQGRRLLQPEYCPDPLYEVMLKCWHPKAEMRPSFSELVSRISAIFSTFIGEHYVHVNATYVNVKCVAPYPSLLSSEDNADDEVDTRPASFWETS
Outline: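 Wells were coated with 10 μg/mL phospholipase C-γ substrate in TBS, and reactions were started with 10 ng/mL c-Met cytoplasmic domain and run at 37° C for 15 minutes. Phosphorylated product was detected with Eu-N1-labeled PT66 antibody. IC50 values came from sigmoidal variable-slope fits of percent inhibition versus log compound concentration.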

[3] = 1 μM ATP (Km level), read-out: ALK Activity (ALK Kinase Inhibition, IC50)
[4] = 1 μM ATP (Km level), read-out: cMet Activity (c-Met Kinase Inhibition, IC50)
[5] = ALK kinase inhibition, 1 μM ATP (Km level), read-out: ALK Activity
[6] = c-Met kinase inhibition, 1 μM ATP (Km level), read-out: cMet Activity
[7] = 1 μM ATP (Km level), 30 ng/ml ALK, 37° C., 15 minutes, read-out: ALK Activity (ALK kinase inhibition, IC50 class)
[8] = 1 μM ATP (Km level), 10 ng/mL c-Met, read-out: cMet Activity (c-Met kinase inhibition, IC50 class)
[9] = ALK kinase inhibition, 1 μM ATP, read-out: ALK Activity
[10] = c-Met kinase inhibition, 1 μM ATP, read-out: cMet Activity

- IC50 [1, 3]: < 100 nM
- IC50 [2, 4]: > 10000 nM
Compound: COc1c(Nc2ncc(Cl)c(Nc3ccccc3S(=O)(=O)N(C)C)n2)ccc2c1CCC(N1CCCC(O)C1)CC2 (mixture of isomers) [Example 907, 2-{5-Chloro-2-[7-(3-hydroxy-piperidin-1-yl)-1-methoxy-6,7,8,9-tetrahydro-5H-benzocyclohepten-2-ylamino]-pyrimidin-4-ylamino}-N,N-dimethyl-benzenesulfonamide]

- IC50 [1, 5]: < 100 nM
- IC50 [2, 6]: 100 to 1000 nM
Compound: CC1(C)CCC(=O)Nc2ccc(Nc3ncc(Cl)c(Nc4ccccc4C(=O)NC4CC4)n3)cc21 [Example 341]

- IC50 [1, 7]: < 100 nM
- IC50 [2, 8]: > 10000 nM
Compound: CCN1C(=O)C(N(C)C)CCc2c1ccc(Nc1ncc(Cl)c(Nc3ccccc3-n3cccn3)n1)c2OC (stereo not shown) [Example 1349, 7-[5-Chloro-4-(2-pyrazol-1-yl-phenylamino)-pyrimidin-2-ylamino]-3-dimethylamino-1-ethyl-6-methoxy-1,3,4,5-tetrahydro-benzo[b]azepin-2-one]

- IC50 [1, 5]: < 100 nM
- IC50 [2, 6]: 1000 to 10000 nM
Compound: CCN1CCc2cc(Nc3ncc(Cl)c(Nc4ccccc4C(=O)NC)n3)c(OC)cc2CC1=O [Example 253, 2-[5-Chloro-2-(3-ethyl-8-methoxy-2-oxo-2,3,4,5-tetrahydro-1H-benzo[d]azepin-7-ylamino)-pyrimidin-4-ylamino]-N-methyl-benzamide]

- IC50 [1, 9]: 100 to 1000 nM
- IC50 [2, 10]: 100 to 1000 nM
Compound: CNC(=O)c1cccc(F)c1Nc1nc(Nc2ccc3c(c2)N(C(=O)N2CCCC2)CCCC3(C)C)ncc1Cl [Example 1620, 2-{5-Chloro-2-[5,5-dimethyl-1-(pyrrolidine-1-carbonyl)-2,3,4,5-tetrahydro-1H-benzo[b]azepin-8-ylamino]-pyrimidin-4-ylamino}-3-fluoro-N-methyl-benzamide]

- IC50 [1, 3]: < 100 nM
- IC50 [2, 4]: < 100 nM
Compound: CNC(=O)c1ccccc1Nc1nc(Nc2ccc3c(c2)CCC(N2CCOCC2)CC3)ncc1C(F)(F)F (stereo not shown) [Example 923, N-Methyl-2-[2-(7-morpholin-4-yl-6,7,8,9-tetrahydro-5H-benzocyclohepten-2-ylamino)-5-trifluoromethyl-pyrimidin-4-ylamino]-benzamide]

- IC50 [1, 3]: < 100 nM
- IC50 [2, 4]: > 10000 nM
Compound: CC1(C)CCCOc2c(Nc3ncc(Cl)c(N[C@@H]4CCCC[C@H]4NS(C)(=O)=O)n3)cccc21 [Example 875, N-{(1R,2R)-2-[5-Chloro-2-(5,5-dimethyl-2,3,4,5-tetrahydro-benzo[b]oxepin-9-ylamino)-pyrimidin-4-ylamino]-cyclohexyl}-methanesulfonamide]

Compound: CS(=O)(=O)N[C@@H]1CCCC[C@H]1Nc1nc(Nc2ccc3c(c2)C2CCC3CN(S(C)(=O)=O)C2)ncc1Cl (stereo partly drawn) [Example 294, N-{(1R,2R)-2-[5-Chloro-2-(10-methanesulfonyl-10-aza-tricyclo[6.3.2.0*2,7*]trideca-2,4,6-trien-4-ylamino)-pyrimidin-4-ylamino]-cyclohexyl}-methanesulfonamide]
- IC50 [1, 5]: < 100 nM
- IC50 [2, 6]: 100 to 1000 nM

- IC50 [1, 9]: < 100 nM
- IC50 [2, 10]: > 10000 nM
Compound: COCCN1CCc2cc(Nc3ncc(Cl)c(N[C@@H]4CCCC[C@H]4N(C)S(C)(=O)=O)n3)c(OC)cc2CC1 [Example 1676, N-((1R,2R)-2-{5-Chloro-2-[8-methoxy-3-(2-methoxy-ethyl)-2,3,4,5-tetrahydro-1H-benzo[d]azepin-7-ylamino]-pyrimidin-4-ylamino}-cyclohexyl)-N-methyl-methanesulfonamide]

- IC50 [1, 5]: < 100 nM
- IC50 [2, 6]: 1000 to 10000 nM
Compound: CCN1C(=O)CCCc2cc(Nc3ncc(Cl)c(Nc4c(F)cccc4C(=O)NC)n3)c(OC)cc21 [Example 138, 2-[5-Chloro-2-(1-ethyl-8-methoxy-2-oxo-2,3,4,5-tetrahydro-1H-benzo[b]azepin-7-ylamino)-pyrimidin-4-ylamino]-3-fluoro-N-methyl-benzamide]

- IC50 [1, 9]: 100 to 1000 nM
- IC50 [2, 10]: 1000 to 10000 nM
Compound: CNC(=O)c1ccc2c(c1Nc1nc(Nc3ccc4c(c3)CCCC(=O)N4C)ncc1Cl)OCO2 [Example 1479, 4-[5-Chloro-2-(1-methyl-2-oxo-2,3,4,5-tetrahydro-1H-benzo[b]azepin-7-ylamino)-pyrimidin-4-ylamino]-benzo[1,3]dioxole-5-carboxylic acid methyl amide]

- IC50 [1, 7]: 100 to 1000 nM
- IC50 [2, 8]: 100 to 1000 nM
Compound: O=C1CCCc2ccc(Nc3ncc(Cl)c(Nc4c(F)cccc4OCC4CCOC4)n3)cc2N1 (stereo not shown) [Example 1276, 8-{5-Chloro-4-[2-fluoro-6-(tetrahydro-furan-3-ylmethoxy)-phenylamino]-pyrimidin-2-ylamino}-1,3,4,5-tetrahydro-1-benzazepin-2-one]

- IC50 [1, 9]: < 100 nM
- IC50 [2, 10]: 1000 to 10000 nM
Compound: CC(C)CN1C(=O)CCC(C)(C)c2ccc(Nc3ncc(Cl)c(N[C@H]4[C@@H](C(N)=O)[C@@H]5C=C[C@H]4C5)n3)cc21 [Example 1593, (1S,2S,3R,4R)-3-[5-Chloro-2-(1-isobutyl-5,5-dimethyl-2-oxo-2,3,4,5-tetrahydro-1H-benzo[b]azepin-8-ylamino)-pyrimidin-4-ylamino]-bicyclo[2.2.1]hept-5-ene-2-carboxylic acid amide]

Compound: N-((1R,2R)-2-{5-Chloro-2-[(1R,8S)-10-(2,2,2-trifluoro-acetyl)-10-aza-tricyclo[6.3.2.0*2,7*]trideca-2,4,6-trien-4-ylamino]-pyrimidin-4-ylamino}-cyclohexyl)-methanesulfonamide and N-((1R,2R)-2-{5-Chloro-2-[(1S,8R)-10-(2,2,2-trifluoro-acetyl)-10-aza-tricyclo[6.3.2.0*2,7*]trideca-2,4,6-trien-4-ylamino]-pyrimidin-4-ylamino}-cyclohexyl)-methanesulfonamide [Example 345]
- IC50 [1, 5]: < 100 nM
- IC50 [2, 6]: < 100 nM

- IC50 [1, 3]: < 100 nM
- IC50 [2, 4]: > 10000 nM
Compound: COc1cc2c(cc1Nc1ncc(Cl)c(NC3(CC(N)=O)CCCCC3)n1)CCN(CCO)CC2 [Example 849, 2-(1-{5-Chloro-2-[3-(2-hydroxy-ethyl)-8-methoxy-2,3,4,5-tetrahydro-1H-benzo[d]azepin-7-ylamino]-pyrimidin-4-ylamino}-cyclohexyl)-acetamide]

- IC50 [1, 7]: 1000 to 10000 nM
- IC50 [2, 8]: > 10000 nM
Compound: COCCN1CCc2cc(Nc3ncc(Cl)c(NC4(C(=O)NCC#N)CC4)n3)c(OC)cc2CC1 [Example 1197, 1-{5-Chloro-2-[8-methoxy-3-(2-methoxy-ethyl)-2,3,4,5-tetrahydro-1H-benzo[d]azepin-7-ylamino]-pyrimidin-4-ylamino}-cyclopropanecarboxylic acid cyanomethyl-amide]

- IC50 [1, 7]: 100 to 1000 nM
- IC50 [2, 8]: < 100 nM
Compound: CNC(=O)c1cccc(F)c1Nc1nc(Nc2ccc3c(c2)NC(=O)C(N2CCOCC2)CC3(C)C)ncc1Cl (stereo not shown) [Example 1288, 2-[5-Chloro-2-(5,5-dimethyl-3-morpholin-4-yl-2-oxo-2,3,4,5-tetrahydro-1H-1-benzazepin-8-ylamino)-pyrimidin-4-ylamino]-3-fluoro-N-methyl-benzamide]

- IC50 [1, 9]: 100 to 1000 nM
- IC50 [2, 10]: < 100 nM
Compound: CNC(=O)c1cccc(F)c1Nc1nc(Nc2ccc3c(c2)NC(=O)CN(CCOC)C3)ncc1Cl [Example 1862, 2-{5-Chloro-2-[4-(2-methoxy-ethyl)-2-oxo-2,3,4,5-tetrahydro-1H-benzo[e][1,4]diazepin-8-ylamino]-pyrimidin-4-ylamino}-3-fluoro-N-methyl-benzamide]

- IC50 [1, 9]: < 100 nM
- IC50 [2, 10]: 1000 to 10000 nM
Compound: COc1cc2c(cc1Nc1ncc(Cl)c(Nc3ccccc3S(=O)(=O)N(C)C)n1)CCN(CC(=O)N1CCN(C)CC1)CC2 [Example 1538, 2-(5-Chloro-2-{8-methoxy-3-[2-(4-methyl-piperazin-1-yl)-2-oxo-ethyl]-2,3,4,5-tetrahydro-1H-3-benzazepin-7-ylamino}-pyrimidin-4-ylamino)-N,N-dimethyl-benzenesulfonamide]

- IC50 [1, 3]: < 100 nM
- IC50 [2, 4]: 100 to 1000 nM
Compound: NC(=O)[C@@H]1[C@H](Nc2nc(Nc3ccc4c(c3)CCC(N3CCOCC3)CC4)ncc2Cl)[C@H]2C=C[C@@H]1C2 (single isomer, unassigned) [Example 682]

- IC50 [1, 3]: < 100 nM
- IC50 [2, 4]: 100 to 1000 nM
Compound: CCN1C(=O)CCC(C)(C)c2ccc(Nc3ncc(Cl)c(Nc4ccc(N(C)C)cc4S(=O)(=O)N(C)C)n3)cc21 [Example 850, 2-[5-Chloro-2-(1-ethyl-5,5-dimethyl-2-oxo-2,3,4,5-tetrahydro-1H-benzo[b]azepin-8-ylamino)-pyrimidin-4-ylamino]-5-dimethylamino-N,N-dimethyl-benzenesulfonamide]

- IC50 [1, 3]: < 100 nM
- IC50 [2, 4]: 1000 to 10000 nM
Compound: COCCN1CCc2ccc(Nc3ncc(Cl)c(Nc4ccccc4-c4ncccc4C(F)(F)F)n3)cc2CC1 [Example 992, 5-Chloro-N*2*-[3-(2-methoxy-ethyl)-2,3,4,5-tetrahydro-1H-benzo[d]azepin-7-yl]-N*4*-[2-(3-trifluoromethyl-pyridin-2-yl)-phenyl]-pyrimidine-2,4-diamine]

- IC50 [1, 3]: < 100 nM
- IC50 [2, 4]: > 10000 nM
Compound: COc1cc2c(cc1Nc1ncc(Cl)c(Nc3ccc(N4CCN(C)CC4)cc3OC)n1)CCN(CC(F)F)CC2 [Example 764, 5-Chloro-N*2*-[3-(2,2-difluoro-ethyl)-8-methoxy-2,3,4,5-tetrahydro-1H-benzo[d]azepin-7-yl]-N*4*-[2-methoxy-4-(4-methyl-piperazin-1-yl)-phenyl]-pyrimidine-2,4-diamine]
